Patent publication US20160251332A1, “Herbicidal Compounds” (SYNGENTA PARTICIPATIONS AG, priority 2013, published 2016)

Experiments:
Format in all cases: in vivo
Amaranthus retroflexus [1] = test: Pre-emergence herbicidal activity, AMARE; conditions: Application pre-emergence, 1000 g/Ha, evaluated after 13 days, scale 0-5
Experimental: (§1) Seeds of a variety of test species were sown in standard soil in pots. After cultivation for one day (pre-emergence) under controlled conditions in a glasshouse (at 24/16° C., day/night; 14 hours light; 65% humidity), the plants were sprayed with an aqueous spray solution derived from the formulation of the technical active ingredient in acetone/water (50:50) solution containing 0.5% Tween 20 (polyoxyethelyene sorbitan monolaurate, CAS RN 9005-64-5). The test plants were then grown in a glasshouse under controlled conditions (at 24/16° C., day/night; 14 hours light; 65% humidity) and watered twice daily. After 13 days, the test was evaluated (5=total damage to plant; 0=no damage to plant).

Echinochloa crus-galli [2] = test: Pre-emergence herbicidal activity, ECHCG; conditions: Application pre-emergence, 1000 g/Ha, evaluated after 13 days, scale 0-5
Experimental: as §1

Abutilon theophrasti [3] = test: Pre-emergence herbicidal activity, ABUTH; conditions: Application pre-emergence, 1000 g/Ha, evaluated after 13 days, scale 0-5
Experimental: as §1

Setaria faberi [4] = test: Pre-emergence herbicidal activity, SETFA; conditions: Application pre-emergence, 1000 g/Ha, evaluated after 13 days, scale 0-5
Experimental: as §1

Alopecurus myosuroides [5] = test: Pre-emergence herbicidal activity, ALOMY; conditions: Application pre-emergence, 1000 g/Ha, evaluated after 13 days, scale 0-5
Experimental: as §1

Zea mays [6] = test: Pre-emergence herbicidal activity, ZEAMX; conditions: Application pre-emergence, 1000 g/Ha, evaluated after 13 days, scale 0-5
Experimental: as §1

Amaranthus retroflexus [7] = test: Post-emergence herbicidal activity, AMARE; conditions: Application post-emergence, 1000 g/Ha, evaluated after 13 days, scale 0-5
Experimental: (§2) Seeds of a variety of test species were sown in standard soil in pots. After 8 days cultivation (post-emergence) under controlled conditions in a glasshouse (at 24/16° C., day/night; 14 hours light; 65% humidity), the plants were sprayed with an aqueous spray solution derived from the formulation of the technical active ingredient in acetone/water (50:50) solution containing 0.5% Tween 20 (polyoxyethelyene sorbitan monolaurate, CAS RN 9005-64-5). The test plants were then grown in a glasshouse under controlled conditions (at 24/16° C., day/night; 14 hours light; 65% humidity) and watered twice daily. After 13 days, the test was evaluated (5=total damage to plant; 0=no damage to plant).

Abutilon theophrasti [8] = test: Post-emergence herbicidal activity, ABUTH; conditions: Application post-emergence, 1000 g/Ha, evaluated after 13 days, scale 0-5
Experimental: as §2

Setaria faberi [9] = test: Post-emergence herbicidal activity, SETFA; conditions: Application post-emergence, 1000 g/Ha, evaluated after 13 days, scale 0-5
Experimental: as §2

Echinochloa crus-galli [10] = test: Post-emergence herbicidal activity, ECHCG; conditions: Application post-emergence, 1000 g/Ha, evaluated after 13 days, scale 0-5
Experimental: as §2

Zea mays [11] = test: Post-emergence herbicidal activity, ZEAMX; conditions: Application post-emergence, 1000 g/Ha, evaluated after 13 days, scale 0-5
Experimental: as §2

Alopecurus myosuroides [12] = test: Post-emergence herbicidal activity, ALOMY; conditions: Application post-emergence, 1000 g/Ha, evaluated after 13 days, scale 0-5
Experimental: as §2

| Structure (SMILES) | AMARE damage score (Amaranthus retroflexus [1]) | ECHCG damage score (Echinochloa crus-galli [2]) | ABUTH damage score (Abutilon theophrasti [3]) | SETFA damage score (Setaria faberi [4]) | ALOMY damage score (Alopecurus myosuroides [5]) | ZEAMX damage score (Zea mays [6]) | AMARE damage score (Amaranthus retroflexus [7]) | ABUTH damage score (Abutilon theophrasti [8]) | SETFA damage score (Setaria faberi [9]) | ECHCG damage score (Echinochloa crus-galli [10]) | ZEAMX damage score (Zea mays [11]) | ALOMY damage score (Alopecurus myosuroides [12]) |
| --- | --- | --- | --- | --- | --- | --- | --- | --- | --- | --- | --- | --- |
| COCc1cccc(-c2cnc(N3C(=O)N(C)CC3O)cc2C(F)(F)F)c1 (stereo not drawn) [Compound A13] | 3 | 2 | 2 | 2 | 2 | 1 | 5 | 5 | 4 | 4 | 2 | 3 |
| Cc1cnc(N2C(=O)N(C)CC2O)cc1C(F)(F)F (stereo not drawn) [Compound A40] | 5 | 5 | 5 | 4 | 4 | 4 | 5 | 5 | 5 | 5 | 4 | 5 |
| CN1CC(O)N(c2cc(C(F)(F)F)c(I)cn2)C1=O (stereo not drawn) [Compound A5, 4-hydroxy-3-[5-iodo-4-(trifluoromethyl)-2-pyridyl]-1-methyl-imidazolidin-2-one] | 5 | 5 | 5 | 5 | 4 | 4 | 5 | 5 | 5 | 5 | 5 | 5 |
| CN1CC(O)N(c2cc(C(F)(F)F)c(-c3cccc(S(=O)(=O)N(C)C)c3)cn2)C1=O (stereo not drawn) [Compound A10] | 5 | 5 | 5 | 4 | 4 | 3 | 5 | 5 | 5 | 5 | 4 | 5 |
| CN1CC(O)N(c2cc(C(C)(F)F)ccn2)C1=O (stereo not drawn) [Compound A37] | 5 | 3 | 5 | 1 | 4 | 2 | 5 | 5 | 5 | 4 | 4 | 5 |
| CN1CC(O)N(c2cc(C(F)(F)F)ccn2)C1=O (stereo not drawn) [Compound A1, 4-hydroxy-1-methyl-3-[4-(trifluoromethyl)-2-pyridyl]imidazolidin-2-one] | 5 | 5 | 5 | 4 | 4 | 3 | 5 | 5 | 5 | 5 | 5 | 5 |
| CN1CC(O)N(c2cc(C(F)(F)F)c(Cl)cn2)C1=O (stereo not drawn) [Compound A36] | 5 | 5 | 5 | 4 | 4 | 2 | 5 | 5 | 5 | 5 | 5 | 5 |
| COc1cnc(N2C(=O)N(C)CC2O)cc1C(F)(F)F (stereo not drawn) [Compound A39] | 5 | 4 | 5 | 4 | 4 | 2 | 5 | 5 | 5 | 5 | 4 | 5 |
| Cc1ccccc1-c1cnc(N2C(=O)N(C)CC2O)cc1C(F)(F)F (stereo not drawn) [Compound A7] | 3 | 1 | 2 | 1 | 1 | 1 | 5 | 5 | 5 | 5 | 3 | 4 |
| CN1CC(O)N(c2cc(C(F)(F)F)c(-c3cccc([S+](C)[O-])c3)cn2)C1=O (stereo not drawn) [Compound A11] | 2 | 1 | 2 | 1 | 1 | 0 | 5 | 5 | 3 | 3 | 2 | 2 |
| CN(C)C(=O)c1cccc(-c2cnc(N3C(=O)N(C)CC3O)cc2C(F)(F)F)c1 (stereo not drawn) [Compound A12] | 1 | 1 | 3 | 1 | 0 | 0 | 5 | 5 | 5 | 2 | 2 | 2 |
| CN1CC(O)N(c2cc(C(F)(F)F)c(-c3ccccc3)cn2)C1=O (stereo not drawn) [Compound A3] | 5 | 5 | 5 | 5 | 4 | 4 | 5 | 5 | 5 | 5 | 2 | 5 |
| CN1CC(O)N(c2cc(C(F)(F)F)c(-c3ccsc3)cn2)C1=O (stereo not drawn) [Compound A4, 4-hydroxy-1-methyl-3-[5-(3-thienyl)-4-(trifluoromethyl)-2-pyridyl]imidazolidin-2-one] | 5 | 4 | 2 | 3 | 3 | 2 | 5 | 5 | 5 | 5 | 0 | 4 |
